Reference: patent US20230104578A1, “ANTI-ADRENOMEDULLIN (ADM) ANTIBODY OR ANTI-ADM ANTIBODY FRAGMENT OR ANTI-ADM NON-IG SCAFFOLD FOR USE IN THERAPY OR PREVENTION OF SHOCK” (ADRENOMED AG, priority 2020, published 2023)

Assays:
[1] = test system: patients with septic shock; test: AdrenOSS-2 phase II clinical trial in septic shock with elevated adrenomedullin; assay type: in vivo, human
Source text: AdrenOSS-2 is a double-blind, placebo-controlled, randomized, multicenter, proof of concept and dose-finding phase II clinical trial to investigate the safety, tolerability and efficacy of the N-terminal ADM antibody named Adrecizumab in patients with septic shock and elevated adrenomedullin (Geven et al. BMJ Open 2019;9:e024475). In total, 301 patients with septic shock and bio-ADM concentration >70 pg/mL were randomized (2:1:1) to treatment with a single intravenous infusion over approximately 1 hour with either placebo (n=152), adrecizumab 2 ng/kg (n=72) or adrecizumab 4 ng/kg (n=77). All-cause mortality within 28 (90) days after inclusion was 25.8% (34.8%). Mean age was 68.4 years and 61% were male. For the per protocol analysis, n=294 patients remained eligible, and 14-day all-cause mortality rate was 18.5%.
In patients treated with Adrecizumab (both doses combined, per protocol population), a trend to lower short term mortality (14 days post admission) was observed compared to placebo (Hazard ratio (HR) 0.701 [0.408-1.21], p=0.100) (FIG. 8).
No such interaction was detected which in other words means, that the beneficial treatment effect was detectable for all patients independent of their pre-dose bio-ADM concentration.
This is further illustrated in Kaplan Meier Plots, where the patient populations were separated by their pre-dose bio-ADM concentration (below/above bio-ADM median) (see FIG. 11a and FIG. 11b).

[2] = test system: mice with CLP-induced sepsis; details: pre-treatment; cited from earlier work
endotoxemic rats = details: pre-treatment; cited from earlier work

Substance: Adrecizumab: humanized version of an N-terminal anti-ADM antibody; heavy chain SEQ ID NO: 32, light chain SEQ ID NO: 33
- HR, 14-day mortality vs placebo ([1]; DPP3 above 50 ng/mL, n=44): 1.69
- HR, 14-day mortality vs placebo ([1]; pre-dose DPP3 < 50 ng/mL, n=244): 0.426
- HR, 14-day mortality vs placebo ([1]; pre-dose DPP3 < 40, n=227): 0.385
- HR, 14-day mortality vs placebo ([1]; pre-dose DPP3 < 60, n=254): 0.449
- HR, 14-day mortality vs placebo ([1]; pre-dose DPP3 < 70, n=261): 0.546
- HR, 14-day mortality vs placebo ([1]; pre-dose DPP3 < 90, n=273): 0.606
- renal vascular leakage [2]: attenuated renal vascular leakage
- renal vascular leakage (endotoxemic rats): attenuated renal vascular leakage
